Source: ChEMBL document CHEMBL4184192, “5-HT1A and 5-HT2A receptors affinity, docking studies and pharmacological evaluation of a series of 8-acetyl-7-hydroxy-4-methylcoumarin derivatives” (Bioorg Med Chem, 2018)
The source made the active and inactive calls. No cut-off for these calls is given here.

Columns and labels:
[1] = target: T1, 5-hydroxytryptamine receptor 1A (Homo sapiens, UniProt P08908); test: Displacement of [3H]-8-OH-DPAT from human 5-HT1A receptor expressed in CHO-K1 cell membranes after 60 mins by microbeta scintillation counting analysis
T1 sequence (P08908 whole entry): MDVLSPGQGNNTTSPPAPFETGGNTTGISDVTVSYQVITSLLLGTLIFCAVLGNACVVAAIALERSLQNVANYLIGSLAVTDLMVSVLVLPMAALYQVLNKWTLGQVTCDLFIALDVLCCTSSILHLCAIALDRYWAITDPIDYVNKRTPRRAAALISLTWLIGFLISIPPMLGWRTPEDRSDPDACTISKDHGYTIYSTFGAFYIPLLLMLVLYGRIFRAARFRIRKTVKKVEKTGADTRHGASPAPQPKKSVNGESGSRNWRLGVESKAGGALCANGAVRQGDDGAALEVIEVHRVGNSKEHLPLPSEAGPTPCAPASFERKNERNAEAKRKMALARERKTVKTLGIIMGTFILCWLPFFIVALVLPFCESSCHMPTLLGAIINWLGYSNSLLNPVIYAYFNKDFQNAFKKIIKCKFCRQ

[2] = target: 5-hydroxytryptamine receptor 2A (Homo sapiens, UniProt P28223); test: Displacement of [3H]-ketanserin from human 5-HT2A receptor expressed in CHO-K1 cell membranes after 60 mins by microbeta scintillation counting analysis; assay type: cell-based
Chain of 5-hydroxytryptamine receptor 2A (P28223 whole entry): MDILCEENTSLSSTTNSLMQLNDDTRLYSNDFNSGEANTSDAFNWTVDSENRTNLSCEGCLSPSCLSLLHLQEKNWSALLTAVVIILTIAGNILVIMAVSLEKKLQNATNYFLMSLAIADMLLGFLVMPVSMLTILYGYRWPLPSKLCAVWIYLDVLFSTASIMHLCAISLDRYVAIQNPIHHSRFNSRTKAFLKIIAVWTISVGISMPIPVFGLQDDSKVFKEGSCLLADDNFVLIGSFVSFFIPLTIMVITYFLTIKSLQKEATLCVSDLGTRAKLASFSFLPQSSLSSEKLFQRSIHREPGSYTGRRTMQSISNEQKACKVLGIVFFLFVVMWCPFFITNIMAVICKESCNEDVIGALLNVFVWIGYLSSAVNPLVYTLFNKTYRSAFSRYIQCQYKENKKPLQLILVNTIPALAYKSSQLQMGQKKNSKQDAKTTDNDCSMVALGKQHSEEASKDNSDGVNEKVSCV

[3] = target: T2, 5-hydroxytryptamine receptor 1A (Rattus norvegicus) (UniProt P19327); test: Agonist activity at 5-HT1A receptor in Sprague-Dawley rat hippocampal membranes at 10^-10 to 10^-5 M after 90 mins by microbeta scintillation counting based [35S]GTPgammaS binding assay relative to control; assay type: functional
T2 sequence (whole entry): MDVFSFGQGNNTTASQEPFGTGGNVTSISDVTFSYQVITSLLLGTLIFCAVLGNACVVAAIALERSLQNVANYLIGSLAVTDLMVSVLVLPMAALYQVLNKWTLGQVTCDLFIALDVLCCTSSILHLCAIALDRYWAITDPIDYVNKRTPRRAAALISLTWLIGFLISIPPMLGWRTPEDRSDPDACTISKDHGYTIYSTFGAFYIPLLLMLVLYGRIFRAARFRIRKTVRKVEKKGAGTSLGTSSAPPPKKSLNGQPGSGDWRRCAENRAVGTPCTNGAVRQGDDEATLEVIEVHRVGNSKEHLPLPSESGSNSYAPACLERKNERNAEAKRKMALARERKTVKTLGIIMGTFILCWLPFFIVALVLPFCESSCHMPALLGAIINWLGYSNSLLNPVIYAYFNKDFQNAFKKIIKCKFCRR

[4] = target: T3, 5-hydroxytryptamine receptor 1A (Rattus norvegicus, UniProt P19327); test: Agonist activity at 5-HT1A receptor in Sprague-Dawley rat hippocampal membranes after 90 mins by microbeta scintillation counting based [35S]GTPgammaS binding assay; assay type: functional
T3 sequence (P19327 whole entry): T2 sequence (whole entry)

[5] = target: T2, 5-hydroxytryptamine receptor 1A (Rattus norvegicus); test: Antagonist activity at 5-HT1A receptor in Sprague-Dawley rat hippocampal membranes assessed as inhibition of 8-OH-DPAT-induced receptor activation at 10^-10 to 10^-5 M after 90 mins by microbeta scintillation counting based [35S]GTPgammaS binding assay relative to control; assay type: functional
[6] = target: T3, 5-hydroxytryptamine receptor 1A; test: Antagonist activity at 5-HT1A receptor in Sprague-Dawley rat hippocampal membranes assessed as inhibition of 8-OH-DPAT-induced receptor activation after 90 mins by microbeta scintillation counting based [35S]GTPgammaS binding assay; assay type: functional
[7] = tested on: Mus musculus; test: Pro-depressant activity in Balb/c mouse assessed as decrease in immobility time administered ip 30 mins prior to test measured for 6 mins by tail suspension test; assay type: ADME, organism-based; conditions: in vivo, 0.1 h
[8] = tested on: Mus musculus; test: Antidepressant activity in Balb/c mouse assessed as decrease in immobility time at 0.3 to 1 mg/kg, ip administered 30 mins prior to test measured for 6 mins by tail suspension test; assay type: functional, organism-based
[9] = tested on: Mus musculus; test: Pro-depressant activity in Balb/c mouse assessed as decrease in immobility time at 3 to 10 mg/kg, ip administered 30 mins prior to test measured for 6 mins by tail suspension test; assay type: ADME, organism-based; conditions: in vivo, 0.1 h
[10] = species: Mus musculus; test: Pro-depressant activity in Balb/c mouse assessed as decrease in home cage activity; assay type: ADME, organism-based; conditions: in vivo
[11] = tested on: Mus musculus; test: Antidepressant activity in Balb/c mouse assessed as decrease in immobility time administered ip 30 mins prior to test measured for 6 mins by tail suspension test; assay type: functional, organism-based
[12] = tested on: Mus musculus; test: Toxicity in Balb/c mouse assessed as alterations in despair-related locomotor activity at 0.3 to 10 mg/kg, ip administered 30 mins prior to test; assay type: organism-based; conditions: in vivo, 0.5 h
[13] = tested on: Mus musculus; test: Toxicity in Balb/c mouse assessed as alterations in visible locomotor activity at 0.3 to 10 mg/kg, ip administered 30 mins prior to test; assay type: organism-based; conditions: in vivo, 0.5 h

Row | SMILES | Ki [1] | Ki [2] | other results
1 | CC(=O)c1c(OCCCN2CCN(c3cc(C)ccc3C)CC2)ccc2c(C)cc(=O)oc12 | 14 nM | 102 nM | 
2 | CC(=O)c1c(OCCCN2CCN(c3ccccc3Cl)CC2)ccc2c(C)cc(=O)oc12 | 2 nM | 22 nM | 
3 | CC(=O)c1c(OCCCCN2CCN(c3ccccc3Br)CC2)ccc2c(C)cc(=O)oc12 | 1.5 nM | 10 nM | 
4 | CC(=O)c1c(OCCCN2CCN(c3ccccc3Br)CC2)ccc2c(C)cc(=O)oc12 | 0.5 nM | 7 nM | Emax [3]: 112%; EC50 [4]: 39.8 nM; inhibition [5]: 82%; EC50 [6]: 126 nM; Activity [7]: Dose-dependent effect; Activity [8]: inactive; Activity [9]: Toxic; Activity [10]: Toxic
5 | CC(=O)c1c(OCCCCN2CCN(c3ccccc3C(F)(F)F)CC2)ccc2c(C)cc(=O)oc12 | 11 nM | 48.7 nM | 
6 | CC(=O)c1c(OCCCN2CCN(c3cc(C)cc(C)c3)CC2)ccc2c(C)cc(=O)oc12 | 0.9 nM | 12.5 nM | 
7 | COc1ccccc1N1CCN(CCCCOc2ccc3c(C)cc(=O)oc3c2C(C)=O)CC1 | 1 nM | 56 nM | 
8 | CC(=O)c1c(OCCCCN2CCN(c3cccc(F)c3)CC2)ccc2c(C)cc(=O)oc12 | 50 nM | 400 nM | 
9 | CC(=O)c1c(OCCCCN2CCN(c3cc(C)cc(C)c3)CC2)ccc2c(C)cc(=O)oc12 | 3.7 nM | 58 nM | 
10 | CC(=O)c1c(OCCCN2CCN(c3cccc(F)c3)CC2)ccc2c(C)cc(=O)oc12 | 1350 nM | 408 nM | 
11 | CC(=O)c1c(OCCCN2CCN(c3cccc(Br)c3)CC2)ccc2c(C)cc(=O)oc12 | 3.5 nM | 6 nM | 
12 | CC(=O)c1c(OCCCN2CCN(c3ccccc3C(F)(F)F)CC2)ccc2c(C)cc(=O)oc12 | 8.8 nM | 20 nM | 
13 | CC(=O)c1c(OCCCCN2CCN(c3ccccc3Cl)CC2)ccc2c(C)cc(=O)oc12 | 0.9 nM | 20 nM | 
14 | CC(=O)c1c(OCCCCN2CCN(c3cc(C)ccc3C)CC2)ccc2c(C)cc(=O)oc12 | 5.4 nM | 46.8 nM | 
15 | CNCCC(Oc1ccc(C(F)(F)F)cc1)c1ccccc1 (configuration not stated) |  |  | Activity [11]: Dose-dependent effect
16 | COc1ccccc1N1CCN(CCCOc2ccc3c(C)cc(=O)oc3c2C(C)=O)CC1 | 0.6 nM | 8 nM | Emax [3]: 108%; EC50 [4]: 2 nM; inhibition [5]: 70%; EC50 [6]: 631 nM; Activity [12]: Non-Toxic; Activity [13]: Non-Toxic
17 | CC(=O)c1c(OCCCCN2CCN(c3cccc(Br)c3)CC2)ccc2c(C)cc(=O)oc12 | 2.5 nM | 6.5 nM | 
